Experimental data published in patent US7795290B2 (Genentech, Inc., priority 2004, dated 2010).

biological target: T1, AKT1 (Homo sapiens, UniProt P31749); experiment: HTS ATP-utilizing enzyme assay, off-chip mobility-shift (Caliper HTS 250); type: biochemical; settings: kinase named = inhibitory activity/selectivity; test compound 10 μM; active = greater than three-sigma from mean
T1 construct: purchased Upstate 14-276
Outline: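 AKT1 activity was measured by off-chip mobility shift (Caliper HTS 250) as the ratio of peptide substrate to phosphorylated product. Test compound was at 10 μM, with 2.5 h incubation at 20–22° C. EDTA wells served as 100% control and DMSO wells as 0%. Hits were called at three-sigma limits.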

T1 sequence (P31749 whole entry): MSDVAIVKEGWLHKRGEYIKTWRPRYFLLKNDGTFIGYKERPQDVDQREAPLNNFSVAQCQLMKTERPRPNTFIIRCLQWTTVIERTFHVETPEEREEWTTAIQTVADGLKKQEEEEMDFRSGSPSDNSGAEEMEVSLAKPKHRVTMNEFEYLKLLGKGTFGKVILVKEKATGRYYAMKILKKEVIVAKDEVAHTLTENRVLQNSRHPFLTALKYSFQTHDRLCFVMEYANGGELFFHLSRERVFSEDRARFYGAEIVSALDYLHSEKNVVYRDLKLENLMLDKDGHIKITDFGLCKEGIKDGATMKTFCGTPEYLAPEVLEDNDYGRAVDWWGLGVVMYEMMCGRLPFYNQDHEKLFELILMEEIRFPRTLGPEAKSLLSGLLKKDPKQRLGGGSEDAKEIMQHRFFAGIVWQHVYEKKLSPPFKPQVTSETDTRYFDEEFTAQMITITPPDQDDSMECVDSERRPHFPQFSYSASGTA

SMILES	Activity
CN1CCN(C(=O)c2ccc(-c3csc(N(CCCN4CCOCC4)C(=O)c4cccs4)n3)cc2)CC1 [N-(4-(4-(4-methylpiperazine-1-carbonyl)phenyl)thiazol-2-yl)-N-(3-morpholinopropyl)thiophene-2-carboxamide]	AKT1
COc1ccc(-c2csc(N(CCCN3CCOCC3)C(=O)c3cc(Cl)ccn3)n2)cc1 [4-chloro-N-(4-(4-methoxyphenyl)thiazol-2-yl)-N-(3-morpholinopropyl)picolinamide]	AKT1
CCN(CC)C(=O)C1CCCN(CCCN(C(=O)c2cccs2)c2nc(-c3cc4ccccc4o3)cs2)C1 (stereo not shown) [1-(3-(N-(4-(benzofuran-2-yl)thiazol-2-yl)thiophene-2-carboxamido)propyl)-N,N-diethylpiperidine-3-carboxamide]	AKT1
COc1ccc(-c2csc(N(CCCN3CCOCC3)C(=O)C3CCCC3)n2)cc1OC [N-(4-(3,4-dimethoxyphenyl)thiazol-2-yl)-N-(3-morpholinopropyl)cyclopentanecarboxamide]	AKT1
COC(=O)C1CCN(C(=O)CCCN(C(=O)c2cccs2)c2nc(-c3cc4ccccc4o3)cs2)CC1 [methyl 1-(4-(N-(4-(benzofuran-2-yl)thiazol-2-yl)thiophene-2-carboxamido)butanoyl)piperidine-4-carboxylate]	AKT1
COC[C@@H]1CCCN1CCCN(C(=O)c1cccs1)c1nc(-c2cc3ccccc3o2)cs1 [(S)—N-(4-(benzofuran-2-yl)thiazol-2-yl)-N-(3-(2-(methoxymethyl)pyrrolidin-1-yl)propyl)thiophene-2-carboxamide]	AKT1
COc1ccc(-c2csc(N(CCCN3CCOCC3)C(=O)C3CCC3)n2)cc1OC [N-(4-(3,4-dimethoxyphenyl)thiazol-2-yl)-N-(3-morpholinopropyl)cyclobutanecarboxamide]	AKT1
COc1ccc(-c2csc(N(CCCN3CCOCC3)C(=O)c3ccccc3)n2)cc1 [N-(4-(4-methoxyphenyl)thiazol-2-yl)-N-(3-morpholinopropyl)benzamide]	AKT1
O=C(c1cccs1)N(CCCN1CCCC1CO)c1nc(-c2cc3ccccc3o2)cs1 (stereo not shown) [N-(4-(benzofuran-2-yl)thiazol-2-yl)-N-(3-(2-(hydroxymethyl)pyrrolidin-1-yl)propyl)thiophene-2-carboxamide]	AKT1
O=C(c1cccs1)N(CCCN1CCCCC1)c1nc(-c2cc3ccccc3o2)cs1 [N-(4-(benzofuran-2-yl)thiazol-2-yl)-N-(3-(piperidin-1-yl)propyl)thiophene-2-carboxamide]	AKT1
O=C(c1cccs1)N(CCCN1CCCCCC1)c1nc(-c2ccccc2)cs1 [N-(3-(azepan-1-yl)propyl)-N-(4-phenylthiazol-2-yl)thiophene-2-carboxamide]	AKT1
O=C(c1cccs1)N(CCCN1CCOCC1)c1nc(-c2nc3ccccc3s2)cs1 [N-(4-(benzo[d]thiazol-2-yl)thiazol-2-yl)-N-(3-morpholinopropyl)thiophene-2-carboxamide]	AKT1
CC(CO)NC(=O)CCN(C(=O)c1cccs1)c1nc(-c2cc3ccccc3o2)cs1 (stereo not shown) [N-(4-(benzofuran-2-yl)thiazol-2-yl)-N-(3-(1-hydroxypropan-2-ylamino)-3-oxopropyl)thiophene-2-carboxamide]	AKT1
CN(C)CCCOc1ccc(-c2csc(N(CCCN3CCOCC3)C(=O)c3cccs3)n2)cc1 [N-(4-(4-(3-(dimethylamino)propoxy)phenyl)thiazol-2-yl)-N-(3-morpholinopropyl)thiophene-2-carboxamide]	AKT1
O=C(c1cccs1)N(CCCN1CCC(O)CC1)c1nc(-c2cc3ccccc3o2)cs1 [N-(4-(benzofuran-2-yl)thiazol-2-yl)-N-(3-(4-hydroxypiperidin-1-yl)propyl)thiophene-2-carboxamide]	AKT1
CC(CO)(CO)C(=O)NCCCN(C(=O)c1cccs1)c1nc(-c2cc3ccccc3o2)cs1 [N-(4-(benzofuran-2-yl)thiazol-2-yl)-N-(3-(3-hydroxy-2-(hydroxymethyl)-2-methylpropanamido)propyl)thiophene-2-carboxamide]	AKT1
